# Test results from US20190271885A1, “OPTICAL FILM AND METHOD FOR PRODUCING THE SAME, POLARIZING PLATE, AND IMAGE DISPLAY DEVICE” (FUJIFILM Corporation, priority 2016, published 2019).
# Experiment: Evaluation of wet heat resistance of optical film (change of in-plane retardation Re)
# Type: physicochemical
# Conditions: HB(C6F5)4 used instead of the additive B-1 of Example 1
# Protocol: The optical film manufactured in each of Examples and Comparative Examples was left to stand in an environment at a temperature of 65° C. and a humidity of 90% for 500 hours, and the in-plane retardation Re of the optical film before being left to stand in a wet heat environment (initial Re1) and the in-plane retardation Re of the optical film after being left to stand in a wet heat environment (Re1 after standing) were compared to each other to calculate a Re change rate 1.
# Furthermore, the Re change rate 1 is calculated by the following equation.
# Re change rate 1(%)={(Initial Re1−Re1 after standing)/Initial Re1}×100
# Furthermore, a comparative optical film was manufactured without use of an additive of each of Examples and Comparative Examples, and according to the same procedure as above, the in-plane retardation Re of the comparative optical film before being left to stand in a wet heat environment (initial Re2) and the in-plane retardation Re of the comparative optical film after being left to stand in a wet heat environment (Re2 after standing) were compared to each other to calculate a Re change rate 2.
# Furthermore, the Re change rate 2 is calculated by the following equation. […]
# A difference between the Re change rate 2 and the Re change rate 1 (Re change rate 2-Re change rate 1) was evaluated according to the following standard. […]
compound,measurement,value
Fc1c(F)c(F)c([B-](c2c(F)c(F)c(F)c(F)c2F)(c2c(F)c(F)c(F)c(F)c2F)c2c(F)c(F)c(F)c(F)c2F)c(F)c1F.[H+] [HB(C6F5)4],Wet heat resistance (in words),the same extent of effects as in Example 1
